What was measured:
southern crabgrass [1] = assay: Test Example 4: herbicidal effect by soil treatment (Table 19, symbol F); assay type: in vivo, southern crabgrass (Digitaria ciliaris); conditions: amount of applied herbicide 320 g/ha
Procedure, shortened: (§1)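 Herbicidal effect was rated 3 weeks after treatment, using the scoring criteria of an earlier test. The compound, formulated as an emulsion and diluted in water to a set herbicide amount, had been sprayed uniformly on soil over freshly sown seeds. Growth took place in a greenhouse at 25° C. to 30° C.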

blackgrass = assay: Test Example 5: herbicidal effect by foliage application, plastic box (Table 20, symbol J); assay type: in vivo, blackgrass (Alopecurus myosuroides); conditions: foliage application, 320 g/ha, evaluated three weeks after application
Procedure, shortened: (§2)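 Foliar spray test: emulsion formulation diluted in water to a set application rate, sprayed onto 14-day-old plants raised in diluvial soil at 25° C to 30° C under glass. Both herbicidal effect and crop effect rated visually three weeks later.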

green foxtail [2] = assay: Test Example 4: herbicidal effect by soil treatment (Table 19, symbol G); assay type: in vivo, green foxtail (Setaria viridis); conditions: amount of applied herbicide 320 g/ha
Procedure, shortened: as §1

wild oat [3] = assay: Test Example 5: herbicidal effect by foliage application, plastic box (Table 20, symbol I); assay type: in vivo, wild oat (Avena fatua); conditions: foliage application, 320 g/ha, evaluated three weeks after application
Procedure, shortened: as §2

redroot pigweed [4] = assay: Test Example 5: herbicidal effect by foliage application, plastic box (Table 20, symbol N); assay type: in vivo, redroot pigweed (Amaranthus retroflexus); conditions: foliage application, 320 g/ha, evaluated three weeks after application
Procedure, shortened: as §2

persian speedwell [5] = assay: Test Example 5: herbicidal effect by foliage application, plastic box (Table 20, symbol R); assay type: in vivo, Persian speedwell (Veronica persica); conditions: foliage application, 320 g/ha, evaluated three weeks after application
Procedure, shortened: as §2

Italian ryegrass [6] = assay: Test Example 5: herbicidal effect by foliage application, plastic box (Table 20, symbol K); assay type: in vivo, Italian ryegrass (Lolium multiflorum); conditions: foliage application, 320 g/ha, evaluated three weeks after application
Procedure, shortened: as §2

rice flat sedge = assay: Test Example 3: herbicidal effect by foliage application, Wagner pot (Table 18, symbol E); assay type: in vivo, rice flat sedge (Cyperus iria); conditions: amount of applied herbicide 320 g/ha
Procedure, shortened: (§3)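 Plants were sown in alluvial soil held under 0.1–0.5 cm standing water and grown 14 days in a greenhouse at 25–30 °C. An emulsifiable formulation, water-diluted to the set dose, was then sprayed onto the foliage, and effects were scored three weeks later using previously defined criteria.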

Italian ryegrass [7] = assay: Test Example 4: herbicidal effect by soil treatment (Table 19, symbol K); assay type: in vivo, Italian ryegrass (Lolium multiflorum); conditions: amount of applied herbicide 320 g/ha
Procedure, shortened: as §1

chickweed [8] = assay: Test Example 5: herbicidal effect by foliage application, plastic box (Table 20, symbol P); assay type: in vivo, common chickweed (Stellaria media); conditions: foliage application, 320 g/ha, evaluated three weeks after application
Procedure, shortened: as §2

persian speedwell [9] = assay: Test Example 4: herbicidal effect by soil treatment (Table 19, symbol R); assay type: in vivo, Persian speedwell (Veronica persica); conditions: amount of applied herbicide 320 g/ha
Procedure, shortened: as §1

barnyard grass [10] = assay: Test Example 5: herbicidal effect by foliage application, plastic box (Table 20, symbol H); assay type: in vivo, barnyard grass (Echinochloa crus-galli); conditions: foliage application, 320 g/ha, evaluated three weeks after application
Procedure, shortened: as §2

velvetleaf [11] = assay: Test Example 4: herbicidal effect by soil treatment (Table 19, symbol M); assay type: in vivo, velvetleaf (Abutilon theophrasti); conditions: amount of applied herbicide 320 g/ha
Procedure, shortened: as §1

Chinese sprangletop = assay: Test Example 3: herbicidal effect by foliage application, Wagner pot (Table 18, symbol D); assay type: in vivo, chinese sprangletop (Leptochloa chinensis); conditions: amount of applied herbicide 320 g/ha
Procedure, shortened: as §3

green foxtail [12] = assay: Test Example 5: herbicidal effect by foliage application, plastic box (Table 20, symbol G); assay type: in vivo, green foxtail (Setaria viridis); conditions: foliage application, 320 g/ha, evaluated three weeks after application
Procedure, shortened: as §2

redroot pigweed [13] = assay: Test Example 4: herbicidal effect by soil treatment (Table 19, symbol N); assay type: in vivo, redroot pigweed (Amaranthus retroflexus); conditions: amount of applied herbicide 320 g/ha
Procedure, shortened: as §1

wild oat [14] = assay: Test Example 4: herbicidal effect by soil treatment (Table 19, symbol I); assay type: in vivo, wild oat (Avena fatua); conditions: amount of applied herbicide 320 g/ha
Procedure, shortened: as §1

lambsquarters [15] = assay: Test Example 5: herbicidal effect by foliage application, plastic box (Table 20, symbol O); assay type: in vivo, lambsquarters (Chenopodium album); conditions: foliage application, 320 g/ha, evaluated three weeks after application
Procedure, shortened: as §2

lambsquarters [16] = assay: Test Example 4: herbicidal effect by soil treatment (Table 19, symbol O); assay type: in vivo, lambsquarters (Chenopodium album); conditions: amount of applied herbicide 320 g/ha
Procedure, shortened: as §1

velvetleaf [17] = assay: Test Example 5: herbicidal effect by foliage application, plastic box (Table 20, symbol M); assay type: in vivo, velvetleaf (Abutilon theophrasti); conditions: foliage application, 320 g/ha, evaluated three weeks after application
Procedure, shortened: as §2

barnyard grass [18] = assay: Test Example 4: herbicidal effect by soil treatment (Table 19, symbol H); assay type: in vivo, barnyard grass (Echinochloa crus-galli); conditions: amount of applied herbicide 320 g/ha
Procedure, shortened: as §1

windgrass [19] = assay: Test Example 5: herbicidal effect by foliage application, plastic box (Table 20, symbol L); assay type: in vivo, windgrass (Apera spica-venti); conditions: foliage application, 320 g/ha, evaluated three weeks after application
Procedure, shortened: as §2

windgrass [20] = assay: Test Example 4: herbicidal effect by soil treatment (Table 19, symbol L); assay type: in vivo, windgrass (Apera spica-venti); conditions: amount of applied herbicide 320 g/ha
Procedure, shortened: as §1

barnyard grass [21] = assay: Test Example 3: herbicidal effect by foliage application, Wagner pot (Table 18, symbol H); assay type: in vivo, barnyard grass (Echinochloa crus-galli); conditions: amount of applied herbicide 320 g/ha
Procedure, shortened: as §3

chickweed [22] = assay: Test Example 4: herbicidal effect by soil treatment (Table 19, symbol P); assay type: in vivo, common chickweed (Stellaria media); conditions: amount of applied herbicide 320 g/ha
Procedure, shortened: as §1

southern crabgrass [23] = assay: Test Example 5: herbicidal effect by foliage application, plastic box (Table 20, symbol F); assay type: in vivo, southern crabgrass (Digitaria ciliaris); conditions: foliage application, 320 g/ha, evaluated three weeks after application
Procedure, shortened: as §2

## Cc1nn(C)c(=O)c(-c2c(-c3ccccc3C(F)(F)F)sc3ccc(F)cc23)c1O [2-229]
Southern crabgrass [1]
  herbicidal effect on F: southern crabgrass: 3 (Herbicidal rate of 40% or more and less than 70%)
blackgrass
  herbicidal effect on J: blackgrass (criteria 0-5): 3 (Herbicidal rate of 40% or more and less than 70%)
Green foxtail [2]
  herbicidal effect on G: green foxtail: 3 (Herbicidal rate of 40% or more and less than 70%)
Wild oat [3]
  herbicidal effect on I: wild oat (criteria 0-5): 1 (Herbicidal rate of 5% or more and less than 20%)
Redroot pigweed [4]
  herbicidal effect on N: redroot pigweed (criteria 0-5): 4 (Herbicidal rate of 70% or more and less than 90%)
Persian speedwell [5]
  herbicidal effect on R: persian speedwell (criteria 0-5): 5 (Herbicidal rate of 90% or more (almost completely withered))
Italian ryegrass [6]
  herbicidal effect on K: Italian ryegrass (criteria 0-5): 4 (Herbicidal rate of 70% or more and less than 90%)
Rice flat sedge
  herbicidal effect on E: rice flat sedge: 4 (Herbicidal rate of 70% or more and less than 90%)
Italian ryegrass [7]
  herbicidal effect on K: Italian ryegrass: 2 (Herbicidal rate of 20% or more and less than 40%)
Chickweed [8]
  herbicidal effect on P: chickweed (criteria 0-5): 5 (Herbicidal rate of 90% or more (almost completely withered))
Persian speedwell [9]
  herbicidal effect on R: persian speedwell: 0 (Herbicidal rate of 5% or less (almost no effect))
Barnyard grass [10]
  herbicidal effect on H: barnyard grass (criteria 0-5): 3 (Herbicidal rate of 40% or more and less than 70%)
Velvetleaf [11]
  herbicidal effect on M: velvetleaf: 1 (Herbicidal rate of 5% or more and less than 20%)
Chinese sprangletop
  herbicidal effect on D: Chinese sprangletop: 3 (Herbicidal rate of 40% or more and less than 70%)
Green foxtail [12]
  herbicidal effect on G: green foxtail (criteria 0-5): 5 (Herbicidal rate of 90% or more (almost completely withered))
Redroot pigweed [13]
  herbicidal effect on N: redroot pigweed: 2 (Herbicidal rate of 20% or more and less than 40%)
Wild oat [14]
  herbicidal effect on I: wild oat: 0 (Herbicidal rate of 5% or less (almost no effect))
Lambsquarters [15]
  herbicidal effect on O: lambsquarters (criteria 0-5): 4 (Herbicidal rate of 70% or more and less than 90%)
Lambsquarters [16]
  herbicidal effect on O: lambsquarters: 3 (Herbicidal rate of 40% or more and less than 70%)
Velvetleaf [17]
  herbicidal effect on M: velvetleaf (criteria 0-5): 4 (Herbicidal rate of 70% or more and less than 90%)
Barnyard grass [18]
  herbicidal effect on H: barnyard grass: 1 (Herbicidal rate of 5% or more and less than 20%)
Windgrass [19]
  herbicidal effect on L: windgrass (criteria 0-5): 4 (Herbicidal rate of 70% or more and less than 90%)
Windgrass [20]
  herbicidal effect on L: windgrass: 0 (Herbicidal rate of 5% or less (almost no effect))
Barnyard grass [21]
  herbicidal effect on H: barnyard grass: 4 (Herbicidal rate of 70% or more and less than 90%)
Chickweed [22]
  herbicidal effect on P: chickweed: 1 (Herbicidal rate of 5% or more and less than 20%)
Southern crabgrass [23]
  herbicidal effect on F: southern crabgrass (criteria 0-5): 3 (Herbicidal rate of 40% or more and less than 70%)
